Assay results reported in the Kinase Knowledgebase extract (Sharma et al. 2016).

Key:
Test in all cases: Enzyme Assay
PIK3CA (human) = PIK3CA (human) (UniProt P42336)
PIK3CB (Human) = PIK3CB (Human) (UniProt P42338)
PIK3CG (human) = PIK3CG (human) (UniProt P48736)
PIK3CD (Human) = PIK3CD (Human) (UniProt O00329)
Chain of PIK3CD (Human) (O00329 whole entry, looked up): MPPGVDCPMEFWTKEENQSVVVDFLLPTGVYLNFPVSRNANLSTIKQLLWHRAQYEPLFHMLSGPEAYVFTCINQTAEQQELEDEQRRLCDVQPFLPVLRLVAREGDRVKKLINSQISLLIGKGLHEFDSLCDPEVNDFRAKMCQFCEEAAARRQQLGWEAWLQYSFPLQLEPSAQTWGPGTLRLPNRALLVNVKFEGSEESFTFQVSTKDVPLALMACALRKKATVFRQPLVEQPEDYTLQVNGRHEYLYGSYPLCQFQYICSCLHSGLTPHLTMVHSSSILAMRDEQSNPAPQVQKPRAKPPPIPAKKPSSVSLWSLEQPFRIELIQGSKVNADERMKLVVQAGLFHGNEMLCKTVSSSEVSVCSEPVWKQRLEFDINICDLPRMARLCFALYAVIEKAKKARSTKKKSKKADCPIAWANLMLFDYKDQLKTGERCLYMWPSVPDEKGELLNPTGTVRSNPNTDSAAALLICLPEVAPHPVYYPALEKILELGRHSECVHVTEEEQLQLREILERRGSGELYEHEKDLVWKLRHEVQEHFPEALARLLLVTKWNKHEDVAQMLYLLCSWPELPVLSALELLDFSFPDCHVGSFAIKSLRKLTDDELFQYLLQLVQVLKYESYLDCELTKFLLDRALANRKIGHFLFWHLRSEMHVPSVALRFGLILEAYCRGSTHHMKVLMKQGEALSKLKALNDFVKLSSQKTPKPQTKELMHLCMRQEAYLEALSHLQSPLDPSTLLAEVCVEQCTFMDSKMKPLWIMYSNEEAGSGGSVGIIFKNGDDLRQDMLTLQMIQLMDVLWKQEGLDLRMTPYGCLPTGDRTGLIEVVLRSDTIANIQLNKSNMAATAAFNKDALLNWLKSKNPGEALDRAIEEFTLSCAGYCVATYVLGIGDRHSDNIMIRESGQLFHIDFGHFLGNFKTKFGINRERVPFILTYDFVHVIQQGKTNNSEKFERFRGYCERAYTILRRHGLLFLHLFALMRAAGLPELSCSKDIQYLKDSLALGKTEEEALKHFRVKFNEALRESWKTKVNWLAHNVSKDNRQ

Chain of PIK3CA (human) (P42336 whole entry, looked up): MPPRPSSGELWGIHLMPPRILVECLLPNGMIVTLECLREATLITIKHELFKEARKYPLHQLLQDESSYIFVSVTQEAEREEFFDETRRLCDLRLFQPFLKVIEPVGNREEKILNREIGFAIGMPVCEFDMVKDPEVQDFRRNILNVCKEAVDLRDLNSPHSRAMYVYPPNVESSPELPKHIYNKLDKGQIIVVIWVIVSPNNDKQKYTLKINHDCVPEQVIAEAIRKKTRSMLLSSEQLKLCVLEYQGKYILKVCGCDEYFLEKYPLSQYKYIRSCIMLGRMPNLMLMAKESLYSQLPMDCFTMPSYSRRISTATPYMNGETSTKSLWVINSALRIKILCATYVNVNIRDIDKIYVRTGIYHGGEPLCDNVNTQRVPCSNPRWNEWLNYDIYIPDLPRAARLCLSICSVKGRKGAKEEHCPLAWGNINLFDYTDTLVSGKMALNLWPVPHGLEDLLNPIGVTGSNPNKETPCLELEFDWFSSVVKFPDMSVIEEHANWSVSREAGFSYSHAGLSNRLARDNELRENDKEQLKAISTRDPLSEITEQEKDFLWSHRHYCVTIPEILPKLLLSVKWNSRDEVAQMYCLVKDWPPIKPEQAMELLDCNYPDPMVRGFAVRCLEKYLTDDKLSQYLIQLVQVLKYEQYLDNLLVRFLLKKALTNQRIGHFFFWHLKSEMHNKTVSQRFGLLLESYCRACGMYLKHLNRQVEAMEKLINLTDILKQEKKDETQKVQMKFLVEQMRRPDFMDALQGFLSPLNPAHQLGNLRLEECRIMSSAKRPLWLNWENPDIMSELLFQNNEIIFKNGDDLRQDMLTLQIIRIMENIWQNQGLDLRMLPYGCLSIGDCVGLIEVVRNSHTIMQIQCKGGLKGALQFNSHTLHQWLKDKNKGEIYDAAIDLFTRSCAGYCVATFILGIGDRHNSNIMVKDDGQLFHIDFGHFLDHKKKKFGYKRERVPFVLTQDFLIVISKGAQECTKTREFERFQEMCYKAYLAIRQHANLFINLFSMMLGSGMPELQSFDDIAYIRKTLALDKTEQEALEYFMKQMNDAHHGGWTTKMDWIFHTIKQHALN
Chain of PIK3CG (human) (P48736 whole entry, looked up): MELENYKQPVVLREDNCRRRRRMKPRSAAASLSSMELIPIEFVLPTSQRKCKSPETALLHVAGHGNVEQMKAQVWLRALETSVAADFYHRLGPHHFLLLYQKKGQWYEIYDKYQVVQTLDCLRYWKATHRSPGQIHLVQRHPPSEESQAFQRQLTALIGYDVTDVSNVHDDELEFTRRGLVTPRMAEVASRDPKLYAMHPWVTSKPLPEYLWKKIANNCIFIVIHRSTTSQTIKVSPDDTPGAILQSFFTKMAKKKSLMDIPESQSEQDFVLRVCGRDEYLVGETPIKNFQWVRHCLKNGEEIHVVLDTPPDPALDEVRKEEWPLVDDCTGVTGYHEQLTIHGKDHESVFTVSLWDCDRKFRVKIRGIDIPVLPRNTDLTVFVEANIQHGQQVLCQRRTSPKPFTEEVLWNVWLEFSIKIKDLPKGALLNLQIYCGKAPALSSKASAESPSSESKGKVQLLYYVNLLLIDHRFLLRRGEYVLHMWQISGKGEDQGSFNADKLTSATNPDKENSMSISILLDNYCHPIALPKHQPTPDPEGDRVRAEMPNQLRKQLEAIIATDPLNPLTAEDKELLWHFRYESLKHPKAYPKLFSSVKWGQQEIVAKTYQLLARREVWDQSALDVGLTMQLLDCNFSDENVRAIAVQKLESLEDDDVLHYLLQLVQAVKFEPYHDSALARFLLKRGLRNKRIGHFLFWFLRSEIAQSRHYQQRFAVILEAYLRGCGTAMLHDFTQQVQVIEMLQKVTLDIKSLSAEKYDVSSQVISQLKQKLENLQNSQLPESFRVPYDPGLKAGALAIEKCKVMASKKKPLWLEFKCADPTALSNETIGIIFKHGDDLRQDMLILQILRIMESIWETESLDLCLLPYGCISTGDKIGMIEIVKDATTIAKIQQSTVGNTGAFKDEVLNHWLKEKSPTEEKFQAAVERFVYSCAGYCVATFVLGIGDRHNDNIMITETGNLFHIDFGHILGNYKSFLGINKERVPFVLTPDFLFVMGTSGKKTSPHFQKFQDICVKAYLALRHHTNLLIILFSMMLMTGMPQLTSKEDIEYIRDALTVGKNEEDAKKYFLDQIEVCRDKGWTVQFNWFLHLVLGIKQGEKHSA
Chain of PIK3CB (Human) (P42338 whole entry, looked up): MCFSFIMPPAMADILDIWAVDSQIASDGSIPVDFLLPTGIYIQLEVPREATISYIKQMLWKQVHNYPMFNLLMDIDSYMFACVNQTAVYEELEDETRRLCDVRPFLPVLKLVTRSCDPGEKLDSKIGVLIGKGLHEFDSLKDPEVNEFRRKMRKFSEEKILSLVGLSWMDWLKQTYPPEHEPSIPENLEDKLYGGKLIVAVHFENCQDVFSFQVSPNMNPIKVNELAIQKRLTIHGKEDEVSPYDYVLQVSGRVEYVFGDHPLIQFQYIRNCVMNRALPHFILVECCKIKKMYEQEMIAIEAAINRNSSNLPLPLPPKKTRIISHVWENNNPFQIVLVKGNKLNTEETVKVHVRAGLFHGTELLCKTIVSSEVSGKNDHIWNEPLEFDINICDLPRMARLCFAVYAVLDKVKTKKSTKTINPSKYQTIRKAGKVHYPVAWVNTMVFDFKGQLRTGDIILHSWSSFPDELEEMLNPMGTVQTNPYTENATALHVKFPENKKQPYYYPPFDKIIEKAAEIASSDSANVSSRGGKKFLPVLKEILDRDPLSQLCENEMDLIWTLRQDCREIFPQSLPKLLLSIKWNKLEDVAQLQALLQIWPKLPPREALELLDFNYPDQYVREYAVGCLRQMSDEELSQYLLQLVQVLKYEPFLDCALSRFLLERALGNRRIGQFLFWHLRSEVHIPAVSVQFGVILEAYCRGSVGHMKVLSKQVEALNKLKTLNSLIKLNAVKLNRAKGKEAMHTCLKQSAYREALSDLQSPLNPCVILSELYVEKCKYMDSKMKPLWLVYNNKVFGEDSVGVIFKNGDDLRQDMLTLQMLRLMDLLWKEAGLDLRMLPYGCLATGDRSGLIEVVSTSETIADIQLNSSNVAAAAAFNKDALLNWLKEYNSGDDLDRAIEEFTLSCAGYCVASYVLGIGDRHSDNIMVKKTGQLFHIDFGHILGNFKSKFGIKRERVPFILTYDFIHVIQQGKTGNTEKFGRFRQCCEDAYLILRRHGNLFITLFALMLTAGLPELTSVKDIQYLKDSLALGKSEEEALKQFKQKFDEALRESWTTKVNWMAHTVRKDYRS

IC50 (PIK3CA (human)) [nM]	IC50 (PIK3CB (Human)) [nM]	IC50 (PIK3CG (human)) [nM]	IC50 (PIK3CD (Human)) [nM]	SMILES
5	124	290		C[C@H]1[C@@H](CC(C)(C)O)OC(=O)N1c1cc(-c2cnc(N)nc2C(F)(F)F)nc(N2CCOCC2)n1.C[C@H]1[C@H](CC(C)(C)O)OC(=O)N1c1cc(-c2cnc(N)nc2C(F)(F)F)nc(N2CCOCC2)n1
		464	80	Nc1ncc(-c2cc(N3CCOCC3)nc(N3CCOCC3)n2)c(C(F)(F)F)n1
5	11	205		C[C@H](O)C[C@H]1OC(=O)N(c2cc(-c3cnc(N)nc3C(F)(F)F)nc(N3CCOCC3)n2)[C@H]1C
359	1250	4320	692	Nc1cc(C(F)(F)F)c(-c2cc(N3CCC(=O)CC3)nc(N3CCOCC3)n2)cn1
5				C[C@@H](O)C[C@H]1OC(=O)N(c2cc(-c3cnc(N)nc3C(F)(F)F)nc(N3CCOCC3)n2)[C@H]1C
6	48	145		Nc1ncc(-c2cc(N3C(=O)O[C@H]4[C@H](O)CC[C@H]43)nc(N3CCOCC3)n2)c(C(F)(F)F)n1
592	2750	4630	2320	Nc1cc(C(F)(F)F)c(-c2cc(N3CCS(=O)(=O)CC3)nc(N3CCOCC3)n2)cn1
134	875		1040	Nc1cc(C(F)(F)F)c(-c2cc(N3CCOC(c4ccccc4)C3)nc(N3CCOCC3)n2)cn1 (stereo not given)
21	6	529	17	Nc1ncc(-c2cc(N3C(=O)OC[C@@H]3CO)nc(N3CCOCC3)n2)c(C(F)(F)F)n1
107	192	8790	153	Nc1cc(C(F)(F)F)c(-c2cc(N3CCN(c4ccccc4)C3=O)nc(N3CCOCC3)n2)cn1
125	214	5270	296	Nc1cc(C(F)(F)F)c(-c2cc(N3CCCCC3=O)nc(N3CCOCC3)n2)cn1
